Here are results for two molecules from patent publication US20080261863A1 (priority 2004, published 2008).

The target of one series is T1, VPAC2 receptor (Homo sapiens, UniProt P41587).
T1 construct: expressed in transfected cells; host or cells: CHO cells under hygromycin and Geneticin selection
T1 sequence (P41587 24-438): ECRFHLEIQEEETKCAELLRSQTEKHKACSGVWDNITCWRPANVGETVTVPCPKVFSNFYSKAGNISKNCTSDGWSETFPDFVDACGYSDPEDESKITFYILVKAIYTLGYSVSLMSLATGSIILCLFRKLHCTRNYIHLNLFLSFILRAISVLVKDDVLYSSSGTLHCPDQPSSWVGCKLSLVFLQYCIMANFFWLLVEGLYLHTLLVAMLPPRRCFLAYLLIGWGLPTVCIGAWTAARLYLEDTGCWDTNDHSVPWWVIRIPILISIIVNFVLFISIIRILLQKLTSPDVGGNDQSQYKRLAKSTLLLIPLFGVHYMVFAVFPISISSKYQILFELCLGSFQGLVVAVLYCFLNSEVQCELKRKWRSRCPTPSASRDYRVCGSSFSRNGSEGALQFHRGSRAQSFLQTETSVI
As to the kind of experiment: Cyclic AMP SPA in CHO cells expressing VPAC2. It is filed as cell-based. The settings on record: cAMP in cells overexpressing the VPAC2 receptor.

The target of another series is T2, VPAC1 (Homo sapiens, UniProt P32241).
T2 sequence (P32241 31-457): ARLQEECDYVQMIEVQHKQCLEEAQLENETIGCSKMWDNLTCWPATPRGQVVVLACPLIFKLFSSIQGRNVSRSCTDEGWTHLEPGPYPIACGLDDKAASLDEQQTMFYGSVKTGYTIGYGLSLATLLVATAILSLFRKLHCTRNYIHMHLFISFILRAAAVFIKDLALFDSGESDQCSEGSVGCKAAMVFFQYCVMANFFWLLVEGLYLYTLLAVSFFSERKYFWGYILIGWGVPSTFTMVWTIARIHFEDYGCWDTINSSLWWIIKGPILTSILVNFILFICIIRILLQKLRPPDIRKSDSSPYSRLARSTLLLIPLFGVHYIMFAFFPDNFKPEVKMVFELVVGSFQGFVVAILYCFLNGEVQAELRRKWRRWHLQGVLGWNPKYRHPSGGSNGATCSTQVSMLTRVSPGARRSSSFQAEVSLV
Briefly: Cyclic AMP assay, VPAC1 agonist activity. It is filed as cell-based.

Series [1] is described as follows: Measurement of blood pressure in anesthetized rats. The settings on record: male, Wistar, rat, in vivo; intravenous, rats; read-out: ED50 blood pressure lowering. In kind it is in vivo, rat. The method, then: (§1) Blood pressure in rats was measured following administration of either non-PEGylated or PEGylated VPAC2 agonist peptides. Blood pressure was measured as follows: Male Wistar rats were anesthetized with pentobarbital (55 mg/kg, i.p.) and the right carotid artery and jugular vein were cannulated. The carotid cannula was connected to the Biopac System (Harvard Apparatus Co., Harvard, Mass.) for continuous monitoring of blood pressure and heart rate. Vehicle or peptide was administered by injection through the jugular vein catheter.

The subject of series [2] is blood pressure in Male Wistar rats. As to the kind of experiment: Measurement of blood pressure in anesthetized rats. In kind it is in vivo, rat. The settings on record: FIG. 2, percentage of mean blood pressure of vehicle-treated rats. Here is the method: as §1

Procedure for VPAC2 receptor: CHO cells expressing the VPAC2 peptide were plated in 96-well plates at 8×10^4 cells/well and grown at 37° C. for 24 hours in αMEM, nucleosides, glutamine (Gibco/BRL, Rockville, Md.), 5% FBS, 100 μg/mL Pen/Strep, 0.4 mg/mL hygromycin, and 1.5 mg/mL Geneticin (Gibco/BRL). The media was removed and the plates were washed with PBS. The cells were incubated with a peptide (in 10 mM Hepes, 150 mM NaCl, 5 mM KCl, 2.5 mM CaCl2, 1.2 mM KH2PO4, 1.2 mM MgSO4, 25 mM NaHCO3 (pH 7.4) with 1% BSA and 100 μM IBMX) for 15 min. at 37° C. Cyclic AMP in the cell extracts was quantitated using the cAMP SPA direct screening assay system (Amersham Pharmacia Biotech Inc., Piscataway, N.J.,). The amount of cAMP present in the lysates was determined following instructions provided with this kit. The amount of cAMP (in pmol) produced at each concentration of peptide was plotted and analyzed by nonlinear regression using Prizm software to determine the EC50 for each peptide.

As for PACAP-27, on VPAC2 receptor, the “VPAC2 receptor agonist activity” value was “potent agonist of both the VPAC1 and VPAC2 receptors”. Moreover, the “VPAC1 agonist activity” value at VPAC1 is “potent agonist of both the VPAC1 and VPAC2 receptors”.

As to `CC[C@H](C)[C@H](NC(=O)[C@H](CO)NC(=O)[C@H](CCC(N)=O)NC(=O)[C@H](CC(C)C)NC(=O)[C@H](Cc1ccc(O)cc1)NC(=O)[C@H](CCCCN)NC(=O)[C@H](CCCCN)NC(=O)[C@H](C)NC(=O)[C@H](C)NC(=O)[C@@H](NC(=O)[C@H](CCC(N)=O)NC(=O)[C@H](CCCCN)NC(=O)[C@H](CCCNC(=N)N)NC(=O)[C@H](CC(C)C)NC(=O)[C@H](CCCNC(=N)N)NC(=O)[C@@H](NC(=O)[C@H](Cc1ccc(O)cc1)NC(=O)[C@H](CCC(N)=O)NC(=O)[C@H](CC(=O)O)NC(=O)[C@@H](NC(=O)[C@H](Cc1ccccc1)NC(=O)[C@@H](NC(=O)[C@H](C)NC(=O)[C@H](CC(=O)O)NC(=O)[C@H](CO)NC(=O)[C@@H](N)Cc1c[nH]cn1)C(C)C)[C@@H](C)O)[C@@H](C)O)C(C)C)C(=O)N[C@@H](CCCCN)C(=O)N[C@@H](CCC(N)=O)C(=O)N[C@@H](CCCCN)C(=O)N[C@@H](CCCNC(=N)N)C(=O)N[C@@H](Cc1ccc(O)cc1)C(=O)N[C@@H](CS)C(=O)O` [Peptide P12], the ED50 in series [1] was 3 µg/kg. For the same molecule, in series [2], the “effect on blood pressure” value is on record as “significantly lowers blood pressure”.

One may read the ED50 as the dose that gives a 50% effect, or the effect in half of the subjects.
